In one series the test system is Cryptosporidium parvum. Briefly: Cytopathic effect (CPE) based assay, C. parvum infected HCT-8 cells. To be noted: HCT-8 host cell viability (CellTiter-Glo), 48 hours treatment, read-out: Cp CPE EC50. A digest of the protocol:
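HCT-8 cells were batch-infected with excysted C. parvum (Iowa isolate) oocysts at MOI 1:2 (host:parasite) for 3 h at 37 °C, then seeded and incubated 24 h before compound addition. Compounds were given as 3-fold dilution series (final DMSO <0.5%). Host-cell loss (cytopathic effect) was read as viability with CellTiter-Glo.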

For a further series, the system named is Cryptosporidium hominis. Briefly: Cytopathic effect (CPE) based assay, C. hominis infected HCT-8 cells. The following applies: HCT-8 host cell viability (CellTiter-Glo), 48 hours treatment, read-out: Ch CPE EC50. The protocol: (§1) Human ileocecal colorectal adenocarcinoma cells (HCT-8 [HRT-18] ATCC, CCL-34) were maintained in T-175 flasks (Corning, 431080) in complete growth medium (RPMI-1640 medium (Gibco, 11875) supplemented with 10% heat-inactivated horse serum (Gibco, 26050), 1×MEM non-essential amino acids (Gibco, 11140), 10 mM HEPES (Gibco, 15630), 100 units/mL penicillin, and 100 units/mL streptomycin) at 37° C. and 5% CO2 in a humidified incubator. Cultures were passaged twice weekly using 10 mL of 1×Phosphate-Buffered Saline (PBS) without Ca^2+ and Mg^2+ (Gibco, 20012) for washing and 3-5 mL per T-175 flask of TrypLE Express Enzyme (Gibco, 12604) for dissociation of adherent cells.
Cryptosporidium hominis oocysts were purchased from the Tufts University Cummings School of Veterinary Medicine (courtesy of Dr. Saul Tzipori). C. hominis oocysts were purified from infected gnotobiotic piglet feces and stored in PBS solution containing 0.01% Tween-20, 100 units/mL penicillin and 100 units/mL gentamicin. C. parvum and C. hominis oocysts less than three months old from the date of shedding were used in infection experiments.
(§2) Excystation and infection protocols were developed following established methods with some modifications (Gut & Nelson, 1999, Upton et aL, 1995, Bessoff et aL, 2013). Briefly, oocysts were primed in 1 mL of 10 mM hydrochloric acid in 1× Hank's Balanced Salt Solution (HBSS) (Gibco, 14025) for 10 minutes with agitation at 1000 rpm, 37° C. on an Eppendorf thermomixer, then washed twice with 1 mL of room temperature non-acidic 1× HBSS by centrifugation at 13,000 rpm for 3 minutes at 25° C. Primed oocysts were further excysted at a concentration of 1×10^6 oocysts/μL in parasite infection medium consisting of a pre-warmed and pre-gassed 1:1 formulation of Leibovitz's L-15 medium (Gibco, 11415) and UltraCULTURE medium (Lonza, 12-725F) supplemented with 2 mM sodium taurocholate (Sigma, 86339-1), 10% heat-inactivated horse serum, and 200 μM L-ascorbic acid (Sigma, 95210) at 25° C. for 10 minutes. HCT-8 monolayer cells were infected with excysted cryptosporidium at a specified multiplicity of infection (MOI). All dilutions for subsequent assays were performed in parasite infection medium without sodium taurocholate. Pre-excysted oocysts were enumerated microscopically using a C-Chip disposable hemocytometer (NanoEnTek, DHC-N01).
(§3) Compound powders were dissolved in neat DMSO (Fisher, D4121) to 10 mM and stored at 4° C. prior to dilution into source plates. Dilutions were carried out using a Microlab STAR liquid handler (Hamilton) to obtain compound source plates containing the ten-point or eight-point three fold dilutions starting from 10 mM in duplicates. Source plates were stored at 4° C. prior to spotting into assay plates. Before administration, all compound source plates were equilibrated to room temperature. A specified volume of compounds from source plate were spotted to assay plate using an Echo Acoustic liquid handler (LABCYTE, 550) so that the final DMSO concentration was less than 0.5%. Each assay plate a specified number of DMSO-treated negative control wells and a well-studied potent active compound at 100 nM as positive control. As a quality control, all positive and negative-control wells were used to calculate a Z′-value and signal to noise ratio (S:N) for each plate.
Cryptosporidium spp are obligate-intracellular parasites that infect intestinal epithelial cells and the host cell is killed upon parasite egress. […] The loss of epithelial cells is due to both rapid parasite invasion/multiplication/egress and also pro-inflammatory immune response (Adams et al., 1994, Griffiths et al., 1994). We have observed a consistent cytopathic effect (CPE) in HCT-8 cells with C. spp infection the loss of viability of the host cells using CellTiter-Glo reagent.
Confluent HCT-8 cells in T-175 flasks were directly infected with excysted oocysts at an MOI (host to parasite) of 1:2 for C. parvum and 1:4 for C. hominis. […]

The next series has as its system C. parvum. Briefly: High content imaging assay, C. parvum infected HCT-8 cells. Format: cell-based. To be noted: Cryptosporidium parvum, percentage of infected HCT-8 cells, 48 hours treatment, read-out: Cp HCl IC50. How it is done: as §1
Cryptosporidium parvum oocysts purchased from the Sterling Laboratory, University of Arizona (Iowa isolate) were purified from infected calf feces using discontinuous sucrose and cesium chloride centrifugation gradients and stored in PBS solution containing 0.01% Tween 20, 100 units/mL penicillin and 100 units/mL gentamicin.
as §2, §3
Imaging assays were developed following established Cryptosporidium spp labeling and in vitro infection models with some modifications (Bessoff et aL, 2013, Gut & Nelson, 1999). Briefly, 2×10^4 HCT-8 cells per well were seeded into 384-well, flat black clear-bottom OPERA assay plates (Greiner, 789071-G) at 20 μL per well in complete growth medium using a Multidrop Combi liquid handler (ThermoScientific, 5840300) and standard tube dispensing cassette (ThermoScientific, 24072670) and incubated for 24 hours at 37° C. The HCT-8 cells were infected with 10 μL per well of 1×10^4 excysted C. parvum oocysts (host to parasite MOI of 1:0.5) or 10 μL per well of 4×10^4 excysted C. hominis oocysts (MOI 1:2) in parasite infection medium using the Multidrop and incubated at 37° C. […]

A short description of series [1]: Cytotoxicity against HepG2. Type of series: cell-based. To be noted: human, HepG2 cells (ATCC HB-8065), 5 days exposure. The essentials: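 Cells seeded at 10^5 per well, held 24 h at 37 °C, then exposed to two-fold serial dilutions of compound for 5 days. Viability read with Cell Proliferation Kit II (XTT); values reported as CC50.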

Consider two compounds from US20190030009A1, “COMPOUNDS AND COMPOSITIONS FOR THE TREATMENT OF CRYPTOSPORIDIOSIS” (Novartis AG, priority 2016, published 2019).

The structures appear in SMILES notation.

On to `CN(C(=O)c1ccn2ncc(-c3ccc(C(N)=O)cc3)c2c1)c1ccc(C#N)cn1` [Example 32], for which the EC50 with Cryptosporidium parvum is 93 nM; with Cryptosporidium hominis it was 119 nM. Also, the IC50 in the series on C. parvum came to 58 nM. Further, in series [1], the CC50 at 5 days is 15.8 µM.

For `CNC(=O)c1ccc(-c2cnn3ccc(C(=O)N(c4ccc(C#N)cn4)C(C)(C)C)cc23)cc1` [Example 119], the figures for the EC50 in the series on Cryptosporidium parvum and with Cryptosporidium hominis were 1930 nM and 1940 nM, respectively. In series [1], this compound returned a CC50 at 5 days of 20.1 µM.
